In PubChem BioAssay (NCI):
“And” between values parts separate entries of the source, which are not always exact repeats. Equal values may be shown once.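 Interpolation was linear, between the two tested concentrations surrounding the appropriate level; five concentrations were tested over 48 hours in 96-well plates. GI50 marks 50% less growth. TGI: total growth inhibition.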

Legend:
Assay in all cases: NCI-60 cell line screen, 48 h
[1] = tested on: A549 NSCLC
[2] = tested on: LOX IMVI melanoma
[3] = tested on: M14 melanoma
[4] = tested on: NCI-H23 lung
[5] = tested on: NCI-H460 lung
[6] = tested on: SF-268 CNS
[7] = tested on: SK-MEL-2 melanoma
[8] = tested on: U251 CNS
[9] = tested on: UACC-257 melanoma
[10] = tested on: UACC-62 melanoma

| Compound | TGI [1] | TGI [2] | TGI [3] | TGI [4] | TGI [5] | TGI [6] | TGI [7] | TGI [8] | TGI [9] | TGI [10] | GI50 [1] | GI50 [2] | GI50 [3] | GI50 [4] | GI50 [5] | GI50 [6] | GI50 [7] | GI50 [8] | GI50 [9] | GI50 [10] |
| --- | --- | --- | --- | --- | --- | --- | --- | --- | --- | --- | --- | --- | --- | --- | --- | --- | --- | --- | --- | --- |
| Nc1ncnc2c1nc(-c1ccccc1)n2C1OC(CO)C(O)C1O (centres undefined) | > 100 µM | > 100 µM | > 100 µM | > 100 µM | > 100 µM | > 100 µM | > 100 µM | > 100 µM | > 100 µM | > 100 µM |  |  |  |  |  |  |  |  |  |  |
| COc1ccc(NC(=O)C(=O)C2CNC(=O)NC2=O)c(OC)c1 (centres undefined) | > 100 µM | > 100 µM | > 100 µM | > 100 µM | > 100 µM | > 100 µM | > 100 µM | > 100 µM | > 100 µM | > 100 µM |  |  |  |  |  |  |  |  |  |  |
| COc1cc(C#N)cc(OC)c1OCCOCCOc1c(OC)cc(C#N)cc1OC | > 100 µM | > 100 µM | > 100 µM | > 100 µM | > 100 µM | > 100 µM | > 100 µM | > 100 µM | > 100 µM | > 100 µM | > 100 µM | > 100 µM | 52.2 µM | > 100 µM | 84.6 µM | > 100 µM | > 100 µM | > 100 µM | 99.1 µM | 33.1 µM |
| CN1CCC[C@@H]1CCO[C@](C)(c1ccccc1)c1ccc(Cl)cc1 | 21.7 µM | 14.2 µM | 3.45 µM | 24.3 µM | 17.1 µM | 21.5 µM | 16.2 µM | 15.8 µM | 4.17 µM | 3.99 µM | 7.92 µM | 3.02 µM | 1.82 µM | 10.5 µM | 4.94 µM | 9 µM | 5 µM | 3.83 µM | 1.9 µM | 1.81 µM |
| O=C1CCCC2=C(N1)C(=O)C=CC2=O | > 78.5 µM | > 65.8 µM | 55.1 µM | 56.7 µM | 63.8 µM | 67.9 µM | 60.4 µM | 58.8 µM | 61.1 µM | 56.7 µM |  |  |  |  |  |  |  |  |  |  |
| CCOc1ccccc1N=Nc1c(-c2ccccc2)nn(C(=O)CC(=O)Nc2cccc(Cl)c2)c1-c1ccccc1 | > 100 µM | > 100 µM | > 100 µM | > 100 µM | > 100 µM | > 100 µM | > 100 µM | > 100 µM | > 100 µM | > 100 µM |  |  |  |  |  |  |  |  |  |  |
| CN(C)CCCN(c1nc(C(Cl)(Cl)Cl)ns1)c1nc(C(Cl)(Cl)Cl)ns1 | 3.78 µM | 3.01 µM | 3.63 µM | 5.55 µM | 3.56 µM | 11.4 µM | 3.5 µM | 3.22 µM | 3.65 µM | 4.91 µM | 1.63 µM | 1.58 µM | 1.89 µM | 2.04 µM | 1.81 µM | 3.12 µM | 1.84 µM | 1.76 µM | 1.8 µM | 2.1 µM |
| CCOC(=O)c1c(C)nc2ccc(Cl)cc2c1-c1ccccc1 | > 100 µM | 37.8 µM | 52.3 µM | > 100 µM | 45.2 µM | 44.4 µM | 34.1 µM | 40.6 µM | 83.1 µM | 26.6 µM | 25.6 µM | 17.7 µM | 18.7 µM | 28.7 µM | 20.2 µM | 19.3 µM | 15 µM | 19.1 µM | 25.5 µM | 10.7 µM |
| O=C(Nc1ccccc1)Nc1cccc(-n2cc(-c3ccncc3)c(-c3ccc(O)c(Cl)c3)n2)c1 | > 100 µM | 25.6 µM | 9.47 µM | 21.4 µM | 17.1 µM | 68.8 µM | 5.63 µM | 6.06 µM | 4.91 µM | 15.5 µM | 3.64 µM | 2.54 µM | 3.1 µM | 3.82 µM | 3.24 µM | 5.73 µM | 2.49 µM | 2.17 µM | 2.12 µM | 3.73 µM |
| Cc1ccccc1NC(=O)C(=O)C(c1cnc2ccc([N+](=O)[O-])cc2n1)[N+](=O)[O-] (centres undefined) | > 100 µM | > 100 µM | > 100 µM | > 100 µM | > 100 µM | > 100 µM | > 100 µM | > 100 µM | > 100 µM | > 100 µM |  |  |  |  |  |  |  |  |  |  |
| CNNCc1ccc(C(=O)NC(C)C)cc1 | > 500 µM | > 500 µM | > 500 µM | > 500 µM | > 500 µM | > 500 µM | > 500 µM | > 500 µM | > 500 µM | 393 µM and > 500 µM | > 500 µM |  |  |  |  |  |  | > 500 µM | > 500 µM | > 500 µM |
| S=c1nc2[nH]ncc2c(N/N=C/c2ccccc2)[nH]1 | > 100 µM | > 100 µM | > 100 µM | > 100 µM | > 100 µM | > 100 µM | > 100 µM | > 100 µM | > 100 µM | > 100 µM | 98.3 µM | 64 µM | > 100 µM | > 100 µM | 93.6 µM | > 100 µM | > 100 µM | 93.8 µM | > 100 µM | 72.7 µM |
| Cc1c(C(=O)CC(=O)C(=O)Nc2ccc(Cl)c(Cl)c2)[n+](=O)c2ccccc2n1[O-] | 69.3 µM | 53.2 µM | 36.5 µM | 96 µM | 57.1 µM | 85.2 µM | 57 µM | 72.3 µM | 34.5 µM | 32.7 µM |  |  |  |  |  |  |  |  |  |  |
| C/C(CC(=O)NNc1ccc([N+](=O)[O-])cc1)=N\Nc1ccc([N+](=O)[O-])cc1 | > 100 µM | > 100 µM | 18.3 µM | 39.3 µM | > 100 µM | > 100 µM | 87.5 µM | 33.2 µM | > 100 µM | 19 µM | 5.42 µM | 2.72 µM | 2.11 µM | 15 µM | 4.14 µM | 13.4 µM | 11 µM | 10.5 µM | 39.6 µM | 1.55 µM |
| Cc1cc(C)c(O)c(Cc2cccc(Cc3cc(C)cc(C)c3O)c2O)c1 | > 100 µM | > 100 µM | > 100 µM | > 100 µM | > 100 µM | > 100 µM | > 100 µM | > 100 µM | > 100 µM | > 100 µM |  |  |  |  |  |  |  |  |  |  |
| COC(=O)N/N=C(/CCN1CCCC1)CC(c1ccccc1)c1c(O)c2ccccc2oc1=O (centres undefined) | > 100 µM | > 100 µM | > 100 µM | > 100 µM | > 100 µM | > 100 µM | > 100 µM | > 100 µM | > 100 µM | > 100 µM |  |  |  |  |  |  |  |  |  |  |
